Experimental data taken from ChEMBL document CHEMBL1156922, “Interaction between double helix DNA fragments and the new antitumor agent sabarubicin, Men10755” (Bioorg Med Chem, 2010).

Assays:
Nucleic Acid [1] = experiment: Binding affinity to d(CGTACG)2 assessed as average residence time; assay type: nucleic-acid assay
Nucleic Acid [2] = experiment: Binding affinity to d(CGATCG)2 assessed as average residence time; assay type: nucleic-acid assay

SMILES	TIME (Nucleic Acid [1]) [h]	TIME (Nucleic Acid [2]) [h]
COc1cccc2c1C(=O)c1c(O)c3c(c(O)c1C2=O)C[C@@](O)(C(=O)CO)C[C@@H]3O[C@H]1C[C@H](N2CCO[C@H](OC)C2)[C@H](O)[C@H](C)O1	0.00139	–
CC(=O)[C@]1(O)Cc2c(O)c3c(c(O)c2[C@@H](O[C@H]2C[C@H](O)[C@H](O[C@H]4C[C@H](N)[C@H](O)[C@H](C)O4)[C@H](C)O2)C1)C(=O)c1ccccc1C3=O	5e-05	5e-05
C[C@@H]1O[C@@H](O[C@@H]2[C@H](C)O[C@@H](O[C@H]3C[C@](O)(C(=O)CO)Cc4c(O)c5c(c(O)c43)C(=O)c3ccccc3C5=O)C[C@@H]2O)C[C@H](N)[C@@H]1O	5.83e-05	0.000131
COc1cccc2c1C(=O)c1c(O)c3c(c(O)c1C2=O)C[C@@](O)(C(=O)CO)C[C@@H]3O[C@H]1C[C@H](N)[C@H](O)[C@H](C)O1	0.000347	0.000231
